The text below walks through data of publication PMC11596612, “Nine New Glycosylated Compounds from the Leaves of the Medicinal Plant Malus hupehensis” (Molecules, 2024).

Usually IC50 stands for the concentration that gives 50% inhibition.

For the test, the system named is NO production in LPS-activated RAW 264.7 macrophage cells. Kind of test: Anti-NO activity assay: inhibition of NO production in LPS-activated RAW 264.7 macrophage cells. The format is cell-based. Conditions: LPS-activated RAW 264.7 cells, means of three independent replicates, ammonium pyrrolidinedithiocarbamate positive control, read-out: NO production inhibitory activity IC50 (RAW 264.7). As to the method:
Using a previously published method, the anti-inflammatory activity of all compounds (1–15) was assessed based on the suppression of NO generation in RAW264.7 cells.

Read-outs that look alike come from different tables or passages of the source.

Turning to `COc1cccc2c1oc1c(OC)cc(O)cc12` [Compound 5], the IC50 (Mus musculus, RAW264.7) was over 40 µM.
As for `O=C(O[C@H]1[C@H](Oc2cc(O)cc(O)c2C(=O)CCc2ccc(O)cc2)O[C@H](CO)[C@@H](O)[C@@H]1O)c1ccccc1` [Compound 1, malahupinoside C], under “Mus musculus, RAW264.7”, the IC50 was over 40 µM.
Regarding `COc1cc(O)c(OC2OC(CO)C(O)C(O)C2O)c2c1oc1ccccc12` (stereo not shown) [Compound 7, fortuneanoside O], the IC50 (Mus musculus, RAW264.7) is over 40 µM.
Still for that read-out and setting: for `O=C(/C=C/c1ccc(O)cc1)OC[C@H]1O[C@@H](Oc2cc(O)cc(O)c2C(=O)CCc2ccc(O)cc2)[C@H](O)[C@@H](O)[C@@H]1O` [Compound 3, malahupinoside E] the value was over 40 µM; for `COc1cc(OC)cc(-c2ccc(O)c(O[C@@H]3O[C@H](CO)[C@@H](O)[C@H](O)[C@H]3O)c2)c1` [Compound 15, 3′,5′-Dimethoxy-(1,1′-biphenyl)-3,4-diol 3-O-β-D-glucopyranoside], over 40 µM.
On to `S=C(S)N1CCCC1` [Ammonium pyrrolidinedithiocarbamate, reference compound], for which the IC50 is 20 ± 0.12 µM.
As for `O=C(/C=C/c1ccccc1)O[C@H]1[C@H](Oc2cc(O)cc(O)c2C(=O)CCc2ccc(O)cc2)O[C@H](CO)[C@@H](O)[C@@H]1O` [Compound 2, malahupinoside D], the IC50 (Mus musculus, RAW264.7) was over 40 µM.
As for `COc1cc(OC)c(OC2OC(CO)C(O)C(O)C2O)c(-c2ccccc2O)c1` (stereo not shown) [Compound 9, fortuneanoside Q], under “Mus musculus, RAW264.7”, the IC50 was over 40 µM.
Same read-out and setting: for `O=C(/C=C/c1ccc(O)cc1)Oc1ccc(CCC(=O)c2c(O)cc(O)cc2O[C@@H]2O[C@H](CO)[C@@H](O)[C@H](O)[C@H]2O)cc1` [Compound 12, 4-[3-[2-(β-D-Glucopyranosyloxy)-4,6-dihydroxyphenyl]-3-oxopropyl]phenyl(2E)-3-(4-hydroxyphenyl)-2-propenoate] the value was over 40 µM.
Consider methylenebisphloridzin [Compound 13], for which the IC50 is over 40 µM.
On the same count and under the same terms, for `O=C(C=Cc1ccccc1)OCC1OC(Oc2cc(O)cc(O)c2C(=O)CCc2ccc(O)cc2)C(O)C(O)C1O` (stereo not shown) [Compound 11, phloridzin 6″-O-cinnamate] the value was over 40 µM.
Consider `COc1cc(OC)cc(-c2ccccc2OC2OC(CO)C(O)C(O)C2O)c1` (stereo not shown) [Compound 8, fortuneanoside P], for which the IC50 (Mus musculus, RAW264.7) was over 40 µM.
With `O=C(OC[C@H]1O[C@@H](Oc2cc(O)cc(O)c2C(=O)CCc2ccc(O)cc2)[C@H](O)[C@@H](O)[C@@H]1O)c1ccccc1` [Compound 10, phloridzin 6″-O-benzoate], the IC50 is over 40 µM.
Regarding `COc1cc(/C=C/C(=O)OC[C@H]2O[C@@H](Oc3cc(O)cc(O)c3C(=O)CCc3ccc(O)cc3)[C@H](O)[C@@H](O)[C@@H]2O)ccc1O` [Compound 4, malahupinoside F], the IC50 (Mus musculus, RAW264.7) came out at 29.6 µM.
As to `COc1cccc2c1oc1c(OC)cc(O)c(OC3OC(CO)C(O)C(O)C3O)c12` (stereo not shown) [Compound 6, fortuneanoside N], the IC50 (Mus musculus, RAW264.7) is over 40 µM.
On to `COc1cc(O)cc2c1oc1ccccc12` [Compound 14, 2-Hydroxy-4-methoxydibenzofuran], for which the IC50 (Mus musculus, RAW264.7) was over 40 µM.
